From ChEMBL document CHEMBL4229492, “Design, Synthesis, and Biological Evaluation of Novel 7-[(3 aS,7 aS)-3 a-Aminohexahydropyrano[3,4- c]pyrrol-2(3 H)-yl]-8-methoxyquinolines with Potent Antibacterial Activity against Respiratory Pathogens” (J Med Chem, 2018)
Values after ≈ are worked out from the molar mass of the structure shown. Active and inactive are the calls of the source. No cut-off for these calls is given here.

How the values were obtained:
Streptococcus pneumoniae [1] = assay: Antibacterial activity against penicillin-susceptible Streptococcus pneumoniae J24 after 18 hrs by two-fold microbroth dilution method; assay type: functional; conditions: J24, 18 h
Moraxella catarrhalis = assay: Antibacterial activity against Moraxella catarrhalis ATCC 25238 after 18 hrs by two-fold microbroth dilution method; assay type: functional; conditions: ATCC 25238, 18 h
Escherichia coli [2] = assay: Antibacterial activity against Escherichia coli 5-037042'98 harboring gyrase A Asp87Gly mutation after 18 hrs by two-fold microbroth dilution method; assay type: functional; conditions: 5-037042'98, 18 h
[3] = AUC (0 to 8 hrs) in Crj:CD rat at 5 mg/kg, po; assay type: ADME, organism-based; design: time < 8 hr, dose 5 mg/kg, route oral; conditions: in vivo
[4] = Cmin in cynomolgus monkey serum at 5 mg/kg, iv after 5 mins; assay type: ADME, organism-based, Macaca fascicularis; conditions: read-out: Cmin
Albumin = Albumin (Homo sapiens, UniProt P02768); assay: Binding affinity to human serum albumin after 60 mins at 37 degC by ultrafiltration-based LC-MS analysis; assay type: ADME; conditions: read-out: PB (converted)
Albumin, sequence (P02768 whole entry): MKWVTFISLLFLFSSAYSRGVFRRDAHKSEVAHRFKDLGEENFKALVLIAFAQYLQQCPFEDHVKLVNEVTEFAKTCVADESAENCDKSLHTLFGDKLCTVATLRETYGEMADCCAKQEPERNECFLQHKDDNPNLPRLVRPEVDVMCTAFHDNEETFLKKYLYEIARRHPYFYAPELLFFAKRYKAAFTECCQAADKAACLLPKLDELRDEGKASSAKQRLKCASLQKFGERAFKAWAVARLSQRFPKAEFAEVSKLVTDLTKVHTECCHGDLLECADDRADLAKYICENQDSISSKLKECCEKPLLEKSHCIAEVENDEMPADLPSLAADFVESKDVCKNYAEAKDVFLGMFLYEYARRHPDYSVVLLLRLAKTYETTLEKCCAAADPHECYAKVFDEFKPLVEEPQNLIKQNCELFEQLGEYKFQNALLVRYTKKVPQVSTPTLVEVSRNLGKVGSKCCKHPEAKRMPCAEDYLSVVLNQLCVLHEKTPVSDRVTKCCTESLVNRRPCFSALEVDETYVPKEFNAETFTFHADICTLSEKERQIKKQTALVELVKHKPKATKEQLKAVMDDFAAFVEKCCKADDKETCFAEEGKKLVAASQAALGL

Escherichia coli [5] = assay: Antibacterial activity against Escherichia coli NIHJ after 18 hrs by two-fold microbroth dilution method; assay type: functional
Staphylococcus aureus [6] = assay: Antibacterial activity against levofloxacin and methicillin-resistant Staphylococcus aureus 890325-1 after 18 hrs by two-fold microbroth dilution method; assay type: functional; conditions: 890325-1, 18 h
Mus musculus [7] = assay: Toxicity in Slc:ddY mouse assessed as induction of mortality at 15 ug/5 uL/mouse administered intracisternally 30 mins after 400 mg/kg, po BPAA dosing and measured over 30 mins post dose; assay type: organism-based; conditions: in vivo, 0.5 h
[8] = AUC (0 to 8 hrs) in cynomolgus monkey serum at 5 mg/kg, iv; assay type: ADME, organism-based, Macaca fascicularis; design: dose 5 mg/kg, time < 8 hr, route intravenous
Klebsiella pneumoniae = assay: Antibacterial activity against Klebsiella pneumoniae TYPE 1 after 18 hrs by two-fold microbroth dilution method; assay type: functional; conditions: TYPE 1, 18 h
Mus musculus [9] = assay: Toxicity in Slc:ddY mouse assessed as induction of mortality at 5 ug/5 uL/mouse administered intracisternally and measured over 30 mins post dose; assay type: organism-based; conditions: in vivo, other, 0.5 h
[10] = Drug recovery in cynomolgus monkey urine at 5 mg/kg, iv after 24 hrs; assay type: ADME, organism-based, Macaca fascicularis; conditions: read-out: Drug recovery
CYP3A4 = CYP3A4 (Homo sapiens, UniProt P08684); assay: Inhibition of CYP3A4 in human liver microsomes at 10 uM assessed as remaining activity by measuring 1'-hydroxylation of midazolam after 30 mins; assay type: ADME; conditions: probe midazolam (1'-hydroxylation), read-out: Activity
CYP3A4, sequence (P08684 whole entry): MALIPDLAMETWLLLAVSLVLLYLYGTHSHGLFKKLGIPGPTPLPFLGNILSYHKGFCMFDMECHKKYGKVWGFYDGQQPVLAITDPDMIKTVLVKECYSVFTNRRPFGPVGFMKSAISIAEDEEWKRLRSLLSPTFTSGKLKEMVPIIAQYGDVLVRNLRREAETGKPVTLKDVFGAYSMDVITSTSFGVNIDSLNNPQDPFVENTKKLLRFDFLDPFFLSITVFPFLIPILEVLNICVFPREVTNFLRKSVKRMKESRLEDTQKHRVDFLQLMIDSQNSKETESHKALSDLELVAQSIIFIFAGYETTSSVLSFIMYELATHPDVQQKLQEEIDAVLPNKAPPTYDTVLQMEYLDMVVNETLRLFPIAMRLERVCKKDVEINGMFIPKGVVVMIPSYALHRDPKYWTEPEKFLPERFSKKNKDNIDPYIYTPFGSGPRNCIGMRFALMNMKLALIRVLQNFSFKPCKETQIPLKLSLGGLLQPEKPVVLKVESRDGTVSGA

Mus musculus [11] = assay: Toxicity in Slc:ddY mouse assessed as induction of convulsion at 15 ug/5 uL/mouse administered intracisternally and measured over 30 mins post dose; assay type: organism-based; conditions: in vivo, other, 0.5 h
Mus musculus [12] = assay: Toxicity in Slc:ddY mouse assessed as induction of mortality at 50 ug/5 uL/mouse administered intracisternally 30 mins after 400 mg/kg, po BPAA dosing and measured over 30 mins post dose; assay type: organism-based; conditions: in vivo, 0.5 h
[13] = Metabolic stability in human microsomes at 1 uM assessed as compound remaining after 30 mins; assay type: ADME, Microsome; conditions: read-out: Stability
Streptococcus pyogenes = assay: Antibacterial activity against Streptococcus pyogenes ATCC 12344 after 18 hrs by two-fold microbroth dilution method; assay type: functional; conditions: ATCC 12344, 18 h
Mus musculus [14] = assay: Toxicity in Slc:ddY mouse assessed as induction of convulsion at 5 ug/5 uL/mouse administered intracisternally and measured over 30 mins post dose; assay type: organism-based; conditions: in vivo, other, 0.5 h
Mus musculus [15] = assay: Toxicity in Slc:ddY mouse assessed as induction of convulsion at 5 ug/5 uL/mouse administered intracisternally 30 mins after 400 mg/kg, po BPAA dosing and measured over 30 mins post dose; assay type: organism-based; conditions: in vivo, 0.5 h
[16] = Cmax in Crj:CD rat at 5 mg/kg, po; assay type: ADME, organism-based; design: dose 5 mg/kg, route oral; conditions: in vivo
Pseudomonas aeruginosa = assay: Antibacterial activity against Pseudomonas aeruginosa PAO1 after 18 hrs by two-fold microbroth dilution method; assay type: functional; conditions: PAO1, 18 h
Staphylococcus aureus [17] = assay: Antibacterial activity against methicillin-resistant Staphylococcus aureus after 18 hrs by two-fold microbroth dilution method; assay type: functional
Mus musculus [18] = assay: Toxicity in Slc:ddY mouse assessed as induction of mortality at 5 ug/5 uL/mouse administered intracisternally 30 mins after 400 mg/kg, po BPAA dosing and measured over 30 mins post dose; assay type: organism-based; conditions: in vivo, 0.5 h
Enterococcus faecalis = assay: Antibacterial activity against Enterococcus faecalis ATCC 19433 after 18 hrs by two-fold microbroth dilution method; assay type: functional; conditions: ATCC 19433, 18 h
[19] = Primary phase half life in cynomolgus monkey serum at 5 mg/kg, iv; assay type: ADME, organism-based, Macaca fascicularis; conditions: read-out: alphat1/2 (converted)
Staphylococcus aureus [20] = assay: Antibacterial activity against levofloxacin and methicillin-resistant Staphylococcus aureus 870307 after 18 hrs by two-fold microbroth dilution method; assay type: functional; conditions: Staphylococcus aureus, 870307, 18 h
Haemophilus influenzae = assay: Antibacterial activity against Haemophilus influenzae ATCC 49247 after 18 hrs by two-fold microbroth dilution method; assay type: functional; conditions: ATCC 49247, 18 h
Bacillus spizizenii = assay: Antibacterial activity against Bacillus subtilis ATCC 6633 after 18 hrs by two-fold microbroth dilution method; assay type: functional; conditions: ATCC 6633, 18 h
hERG (KCNH2) [21] = target: T1, hERG (KCNH2) (Homo sapiens, UniProt Q12809); assay: Inhibition of human ERG expressed in CHOK1 cells at 30 uM; assay type: cell-based; conditions: CHOK1 cells that express human ERG
T1 sequence (Q12809 whole entry): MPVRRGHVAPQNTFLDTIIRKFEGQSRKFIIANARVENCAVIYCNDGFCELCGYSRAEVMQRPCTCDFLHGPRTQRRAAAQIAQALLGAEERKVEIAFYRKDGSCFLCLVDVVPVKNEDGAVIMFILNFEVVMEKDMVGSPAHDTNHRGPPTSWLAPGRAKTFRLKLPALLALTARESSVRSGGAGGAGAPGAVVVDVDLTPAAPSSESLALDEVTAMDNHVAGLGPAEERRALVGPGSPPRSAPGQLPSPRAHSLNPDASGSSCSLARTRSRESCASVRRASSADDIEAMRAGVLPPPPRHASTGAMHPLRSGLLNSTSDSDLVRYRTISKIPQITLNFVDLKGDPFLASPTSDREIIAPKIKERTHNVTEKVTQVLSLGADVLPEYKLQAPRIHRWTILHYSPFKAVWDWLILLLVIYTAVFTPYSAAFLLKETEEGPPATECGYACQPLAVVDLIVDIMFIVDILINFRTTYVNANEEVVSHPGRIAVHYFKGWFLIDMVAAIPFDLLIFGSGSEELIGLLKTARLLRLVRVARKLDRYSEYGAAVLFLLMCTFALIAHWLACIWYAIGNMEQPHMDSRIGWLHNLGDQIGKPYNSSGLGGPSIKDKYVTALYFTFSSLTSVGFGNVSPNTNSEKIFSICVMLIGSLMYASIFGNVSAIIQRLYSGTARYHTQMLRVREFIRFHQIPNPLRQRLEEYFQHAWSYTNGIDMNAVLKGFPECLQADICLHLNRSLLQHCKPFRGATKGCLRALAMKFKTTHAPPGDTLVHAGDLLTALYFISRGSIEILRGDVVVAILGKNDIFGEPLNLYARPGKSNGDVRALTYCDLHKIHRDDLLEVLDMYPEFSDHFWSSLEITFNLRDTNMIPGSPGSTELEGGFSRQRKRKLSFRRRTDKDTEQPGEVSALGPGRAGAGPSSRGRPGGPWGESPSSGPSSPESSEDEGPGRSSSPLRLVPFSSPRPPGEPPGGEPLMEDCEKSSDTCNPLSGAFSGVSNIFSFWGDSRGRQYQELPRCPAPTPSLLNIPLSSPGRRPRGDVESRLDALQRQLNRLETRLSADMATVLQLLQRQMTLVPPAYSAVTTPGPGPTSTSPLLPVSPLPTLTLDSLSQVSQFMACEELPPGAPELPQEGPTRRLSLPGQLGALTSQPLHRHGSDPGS

Streptococcus pneumoniae [22] = assay: Antibacterial activity against penicillin-susceptible Streptococcus pneumoniae J41 after 18 hrs by two-fold microbroth dilution method; assay type: functional; conditions: J41, 18 h
Escherichia coli [23] = assay: Antibacterial activity against quinolone-resistant Escherichia coli DNS5101 after 18 hrs by two-fold microbroth dilution method; assay type: functional; conditions: DNS5101, 18 h
Mus musculus [24] = assay: Toxicity in Slc:ddY mouse assessed as induction of convulsion at 15 ug/5 uL/mouse administered intracisternally 30 mins after 400 mg/kg, po BPAA dosing and measured over 30 mins post dose; assay type: organism-based; conditions: in vivo, 0.5 h
Staphylococcus aureus [25] = assay: Antibacterial activity against Staphylococcus aureus SMITH after 18 hrs by two-fold microbroth dilution method; assay type: functional
Mus musculus [26] = assay: Toxicity in Slc:ddY mouse assessed as induction of mortality at 15 ug/5 uL/mouse administered intracisternally and measured over 30 mins post dose; assay type: organism-based; conditions: in vivo, other, 0.5 h
hERG (KCNH2) [27] = target: T1, hERG (KCNH2); assay: Inhibition of human ERG expressed in CHOK1 cells at 100 uM; assay type: cell-based; conditions: CHOK1 cells that express human ERG
Mus musculus [28] = assay: Toxicity in Slc:ddY mouse assessed as induction of mortality at 50 ug/5 uL/mouse administered intracisternally and measured over 30 mins post dose; assay type: organism-based; conditions: in vivo, other, 0.5 h
Streptococcus pneumoniae [29] = assay: Antibacterial activity against penicillin-resistant Streptococcus pneumoniae 033806 after 18 hrs by two-fold microbroth dilution method; assay type: functional; conditions: Streptococcus pneumoniae, 033806, 18 h
Mus musculus [30] = assay: Toxicity in Slc:ddY mouse assessed as induction of convulsion at 50 ug/5 uL/mouse administered intracisternally 30 mins after 400 mg/kg, po BPAA dosing and measured over 30 mins post dose; assay type: organism-based; conditions: in vivo, 0.5 h
[31] = AUC (0 to 24 hrs) in cynomolgus monkey serum at 5 mg/kg, po; assay type: ADME, organism-based, Macaca fascicularis; design: time < 24 hr, dose 5 mg/kg, route oral
Streptococcus pneumoniae [32] = assay: In vivo antibacterial activity against quinolone-sensitive and penicillin-resistant Streptococcus pneumoniae 033806 infected in CBA/JNCrj mouse assessed as reduction in bacterial count at 10 to 40 mg/kg, sc administered twice per day starting from 1 day after infection and measured on day after final dose; assay type: functional, organism-based
Mus musculus [33] = assay: Toxicity in Slc:ddY mouse assessed as induction of convulsion at 50 ug/5 uL/mouse administered intracisternally and measured over 30 mins post dose; assay type: organism-based; conditions: in vivo, other, 0.5 h

| SMILES | MIC (Escherichia coli [2]) | fraction unbound at 1 h (Albumin) | MIC (Staphylococcus aureus [6]) | Activity (Mus musculus [7]) | AUC(0-t) at 8 h [8] | Activity (Mus musculus [9]) | activity at 0.5 h, 10 µM (CYP3A4) | Activity (Mus musculus [12]) | remaining at 0.5 h, 1 µM [13] | MIC (Streptococcus pyogenes) | Activity (Mus musculus [14]) | Activity (Mus musculus [15]) | MIC50 (Staphylococcus aureus [17]; Staphylococcus aureus, 18 h) | MIC90 (Staphylococcus aureus [17]; Staphylococcus aureus, 18 h) | Activity (Mus musculus [18]) | MIC (Staphylococcus aureus [20]) | MIC (Bacillus spizizenii) | MIC (Streptococcus pneumoniae [22]) | MIC (Escherichia coli [23]) | Activity (Mus musculus [24]) | also measured |
| --- | --- | --- | --- | --- | --- | --- | --- | --- | --- | --- | --- | --- | --- | --- | --- | --- | --- | --- | --- | --- | --- |
| COc1c(N2C[C@@H]3CCOC[C@@]3(N)C2)c(F)cc2c(=O)c(C(=O)O)cn([C@@H]3C[C@@H]3F)c12 | 0.05 µg/mL (≈ 0.115 µM) | 1 | 0.2 µg/mL (≈ 0.459 µM) | Non-Toxic | 22900 ng·h/mL | Non-Toxic | 97.4% | Non-Toxic | 100% | 0.05 µg/mL (≈ 0.115 µM) | Non-Toxic | Non-Toxic | 0.015 µg/mL (≈ 0.0344 µM) | 0.5 µg/mL (≈ 1.15 µM) | Non-Toxic | 0.2 µg/mL (≈ 0.459 µM) | 6 ng/mL (≈ 0.0138 µM) | 0.05 µg/mL (≈ 0.115 µM) | 1.56 µg/mL (≈ 3.58 µM) | Non-Toxic | MIC (Streptococcus pneumoniae [1]): 0.1 µg/mL (≈ 0.23 µM); MIC (Moraxella catarrhalis): 0.025 µg/mL (≈ 0.0574 µM); AUC(0-t) at 8 h [3]: 3140 ng·h/mL; concentration at 5 min [4]: 7000 ng/mL; MIC (Escherichia coli [5]): 6 ng/mL (≈ 0.0138 µM); MIC (Klebsiella pneumoniae): 0.05 µg/mL (≈ 0.115 µM); dose excreted at 24 h [10]: 65%; Activity (Mus musculus [11]): Non-Toxic; Cmax [16]: 880 ng/mL; MIC (Pseudomonas aeruginosa): 0.78 µg/mL (≈ 1.79 µM); MIC (Staphylococcus aureus [17]): 0.008 to 8 µg/mL; MIC (Enterococcus faecalis): 0.2 µg/mL (≈ 0.459 µM); half-life [19]: 210 min; MIC (Haemophilus influenzae): 6 ng/mL (≈ 0.0138 µM); inhibition at 30 µM (hERG (KCNH2) [21]): -2.2%; MIC (Staphylococcus aureus [25]): 6 ng/mL (≈ 0.0138 µM); Activity (Mus musculus [26]): Non-Toxic; inhibition at 100 µM (hERG (KCNH2) [27]): -2.5%; Activity (Mus musculus [28]): Non-Toxic; MIC (Streptococcus pneumoniae [29]): 0.12 µg/mL (≈ 0.276 µM) |
| O=C(O)c1cn(C2CC2)c2cc(N3CCNCC3)c(F)cc2c1=O [CIPROFLOXACIN] |  |  |  | Toxic |  | Non-Toxic |  | Toxic |  |  | Non-Toxic | Toxic |  |  | Toxic |  |  |  |  | Toxic | Activity (Mus musculus [30]): Toxic |
| COc1c(N2CC3(CC3)[C@](C)(N)C2)c(F)cc2c(=O)c(C(=O)O)cn([C@@H]3C[C@@H]3F)c12 | 0.05 µg/mL (≈ 0.119 µM) | 0.946 | 0.78 µg/mL (≈ 1.86 µM) | Non-Toxic | 23800 ng·h/mL | Non-Toxic | 78.4% | Non-Toxic | 97% | 0.2 µg/mL (≈ 0.477 µM) | Non-Toxic | Non-Toxic | 0.03 µg/mL (≈ 0.0715 µM) | 1 µg/mL (≈ 2.38 µM) | Non-Toxic | 0.78 µg/mL (≈ 1.86 µM) | 12 ng/mL (≈ 0.0286 µM) | 0.1 µg/mL (≈ 0.238 µM) | 6.25 µg/mL (≈ 14.9 µM) |  | AUC(0-t) at 24 h [31]: 16900 ng·h/mL; Activity (Streptococcus pneumoniae [32]): Active; MIC (Staphylococcus aureus [17]; Staphylococcus aureus, 18 h, read-out: MIC): 0.015 to 4 µg/mL (≈ 0.0358 to 9.54 µM); Activity (Mus musculus [33]): Toxic; MIC (Staphylococcus aureus [25]): 12 ng/mL (≈ 0.0286 µM); Activity (Mus musculus [26]): Non-Toxic; Activity (Mus musculus [28]): Toxic; MIC (Streptococcus pneumoniae [29]): 0.12 µg/mL (≈ 0.286 µM) |
